Target: human orexin-2 receptor (Homo sapiens (Human), UniProt O43614)
Test: FLIPR Ca2+ Flux Assay, orexin-2 receptor
Format: cell-based
Details: CHO cells expressing the human orexin-2 receptor; agonist 70 pM Ala-6,12 human orexin-A; read-out: hOX2 FLIPR IC50
Description: In a typical experiment the OX1 and OX2 receptor antagonistic activity of the compounds of the present invention was determined in accordance with the following experimental method. For intracellular calcium measurements, Chinese hamster ovary (CHO) cells expressing the rat orexin-1 receptor or the human orexin-2 receptor, are grown in Iscove's modified DMEM containing 2 mM L-glutamine, […], 1% hypoxanthine-thymidine supplement, 100 U/ml penicillin, 100 μg/ml streptomycin and 10% heat-inactivated fetal calf serum (FCS). The cells are seeded at 20,000 cells/well into Becton-Dickinson black 384-well clear bottom sterile plates coated with poly-D-lysine. All reagents are from GIBCO-Invitrogen Corp. The seeded plates are incubated overnight at 37° C. and 5% CO2. Ala-6,12 human orexin-A as the agonist is prepared as a 1 mM stock solution in 1% bovine serum albumin (BSA) and diluted in assay buffer (HBSS containing 20 mM HEPES, 0.1% BSA and 2.5 mM probenecid, pH7.4) for use in the assay at a final concentration of 70 pM. Test compounds are prepared as 10 mM stock solution in DMSO, then diluted in 384-well plates, first in DMSO, then assay buffer. On the day of the assay, cells are washed 3 times with 100 μl assay buffer and then incubated for 60 min (37° C., 5% CO2) in 60 μl assay buffer containing 1 μM Fluo-4AM ester, 0.02% pluronic acid, and 1% BSA. The dye loading solution is then aspirated and cells are washed 3 times with 100 μl assay buffer. 30 μl of that same buffer is left in each well. Within the Fluorescent Imaging Plate Reader (FLIPR, Molecular Devices), test compounds are added to the plate in a volume of 25 μl, incubated for 5 min and finally 25 μl of agonist is added. Fluorescence is measured for each well at 1 second intervals for 5 minutes and the height of each fluorescence peak is compared to the height of the fluorescence peak induced by 70 pM Ala-6,12 orexin-A with buffer in place of antagonist. […] The intrinsic orexin receptor antagonist activity of a compound which may be used in the present invention may be determined by these assays.

Sequence of human orexin-2 receptor (O43614 whole entry): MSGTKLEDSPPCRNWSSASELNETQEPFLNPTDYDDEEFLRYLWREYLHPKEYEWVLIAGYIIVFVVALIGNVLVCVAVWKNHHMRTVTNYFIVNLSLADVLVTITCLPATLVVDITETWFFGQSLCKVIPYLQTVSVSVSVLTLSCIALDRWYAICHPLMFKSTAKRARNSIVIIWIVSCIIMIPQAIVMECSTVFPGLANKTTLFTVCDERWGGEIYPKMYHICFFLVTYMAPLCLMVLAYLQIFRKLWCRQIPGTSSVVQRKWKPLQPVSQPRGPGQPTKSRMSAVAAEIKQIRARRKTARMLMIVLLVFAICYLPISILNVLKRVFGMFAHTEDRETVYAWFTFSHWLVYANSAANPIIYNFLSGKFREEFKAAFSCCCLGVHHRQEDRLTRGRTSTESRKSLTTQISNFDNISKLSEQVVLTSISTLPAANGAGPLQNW

| SMILES | IC50 |
| --- | --- |
| C[C@@H]1CC[C@@H](c2cc(C(C)(O)C3CC3)on2)CN1C(=O)c1ccccc1-n1nccn1 (single isomer, unassigned) [Example 9] | 0.0258 µM |
| C[C@@H]1CC[C@@H](c2cc(C(C)(O)C3CC3)on2)CN1C(=O)c1ccccc1-n1nccn1 (single isomer, unassigned) [Example 10] | 0.0156 µM |
| CC(C)C(C)(O)c1cc([C@@H]2CC[C@@H](C)N(C(=O)c3ccccc3-n3nccn3)C2)no1 (single isomer, unassigned) [Example 16] | 0.0243 µM |
| CC(C)C(C)(O)c1cc([C@@H]2CC[C@@H](C)N(C(=O)c3ccccc3-n3nccn3)C2)no1 (single isomer, unassigned) [Example 17] | 0.0245 µM |
| C[C@@H]1CC[C@@H](c2cc(C(C)(O)C3CC3)no2)CN1C(=O)c1ccccc1-n1nccn1 (single isomer, unassigned) [Example 52] | 0.0473 µM |
| C[C@@H]1CC[C@@H](c2cc(C(C)(O)C3CC3)no2)CN1C(=O)c1ccccc1-n1nccn1 (single isomer, unassigned) [Example 53] | 0.0343 µM |
| C[C@@H]1CC[C@@H](c2cc(C(C)(C)O)on2)CN1C(=O)c1ccccc1-n1nccn1 [Example 1, 2-{3-[(3R,6R)-6-Methyl-1-{[2-(2H-1,2,3-triazol-2-yl)phenyl]carbonyl}piperidin-3-yl]isoxazol-5-yl}propan-2-ol] | 0.0469 µM |
| C[C@@H]1CC[C@@H](c2cc(C(C)(C)O)on2)CN1C(=O)c1ccccc1C1(C#N)CC1 [Example 2, 1-(2-((2R,5R)-5-(5-(2-Hydroxypropan-2-yl)isoxazol-3-yl)-2-methylpiperidine-1-carbonyl)phenyl)cyclopropanecarbonitrile] | 0.104 µM |
| C[C@@H]1CC[C@@H](c2cc(C(C)(C)O)on2)CN1C(=O)c1cc(Cl)ccc1-n1nccn1 [Example 3, (5-Chloro-2-(2H-1,2,3-triazol-2-yl)phenyl)((2R,5R)-5-(5-(2-hydroxypropan-2-yl)isoxazol-3-yl)-2-methylpiperidin-1-yl)methanone] | 1.43 µM |
| C[C@@H]1CC[C@@H](c2cc(C(C)(C)O)on2)CN1C(=O)c1cc(F)ccc1-n1nccn1 [Example 4, (5-Fluoro-2-(2H-1,2,3-triazol-2-yl)phenyl)((2R,5R)-5-(5-(2-hydroxypropan-2-yl)isoxazol-3-yl)-2-methylpiperidin-1-yl)methanone] | 0.278 µM |
| CCOc1ccccc1C(=O)N1C[C@H](c2cc(C(C)(C)O)on2)CC[C@H]1C [Example 5, (2-Ethoxyphenyl)((2R,5R)-5-(5-(2-hydroxypropan-2-yl)isoxazol-3-yl)-2-methylpiperidin-1-yl)methanone] | 1.19 µM |
| CC(C)Oc1ncccc1C(=O)N1C[C@H](c2cc(C(C)(C)O)on2)CC[C@H]1C [Example 6, ((2R,5R)-5-(5-(2-Hydroxypropan-2-yl)isoxazol-3-yl)-2-methylpiperidin-1-yl)(2-isopropoxypyridin-3-yl)methanone] | 1.84 µM |
| C[C@@H]1CC[C@@H](c2cc(C(C)(C)O)on2)CN1C(=O)c1cccnc1OCC(F)(F)F [Example 7, ((2R,5R)-5-(5-(2-Hydroxypropan-2-yl)isoxazol-3-yl)-2-methylpiperidin-1-yl)(2-(2,2,2-trifluoroethoxy)pyridin-3-yl)methanone] | 0.227 µM |
| CCC(O)(CC)c1cc([C@@H]2CC[C@@H](C)N(C(=O)c3ccccc3-n3nccn3)C2)no1 [Example 8, (2-(2H-1,2,3-triazol-2-yl)phenyl)((2R,5R)-5-(5-(3-hydroxypentan-3-yl)isoxazol-3-yl)-2-methylpiperidin-1-yl)methanone] | 0.552 µM |
| CC[C@@](C)(O)c1cc([C@@H]2CC[C@@H](C)N(C(=O)c3ccccc3-n3nccn3)C2)no1 [Example 11, (2-(2H-1,2,3-Triazol-2-yl)phenyl)((2R,5R)-5-(5-((R)-2-hydroxybutan-2-yl)isoxazol-3-yl)-2-methylpiperidin-1-yl)methanone] | 0.0414 µM |
| CC[C@](C)(O)c1cc([C@@H]2CC[C@@H](C)N(C(=O)c3ccccc3-n3nccn3)C2)no1 [Example 12, (2-(2H-1,2,3-triazol-2-yl)phenyl)((2R,5R)-5-(5-((S)-2-hydroxybutan-2-yl)isoxazol-3-yl)-2-methylpiperidin-1-yl)methanone] | 0.015 µM |

| SMILES | IC50 |
| --- | --- |
| C[C@@H]1CC[C@@H](c2cc(C3(O)CCC3)on2)CN1C(=O)c1ccccc1-n1nccn1 [Example 13, 1-{3-[(3R,6R)-6-Methyl-1-{[2-(2H-1,2,3-triazol-2-yl)phenyl]carbonyl}piperidin-3-yl]isoxazol-5-yl}cyclobutanol] | 0.635 µM |
| C[C@@H]1CC[C@@H](c2cc([C@](C)(O)C(F)F)on2)CN1C(=O)c1ccccc1-n1nccn1 [Example 18, (2S)-1,1-Difluoro-2-{3-[(3R,6R)-6-methyl-1-{[2-(2H-1,2,3-triazol-2-yl)phenyl]carbonyl}piperidin-3-yl]isoxazol-5-yl}propan-2-ol] | 0.092 µM |
| COC(C)(C)c1cc([C@@H]2CC[C@@H](C)N(C(=O)c3ccccc3-n3nccn3)C2)no1 [Example 19, (2R,5R)-5-[5-(1-methoxy-1-methylethyl)isoxazol-3-yl]-2-methyl-1-{[2-(2H-1,2,3-triazol-2-yl)phenyl]carbonyl}piperidine] | 0.0273 µM |
| C[C@@H]1CC[C@@H](c2cc(C(C)(C)O)no2)CN1C(=O)c1ccccc1-n1nccn1 [Example 20, 2-{5-[(3R,6R)-6-Methyl-1-{[2-(2H-1,2,3-triazol-2-yl)phenyl]carbonyl}piperidin-3-yl]isoxazol-3-yl}propan-2-ol] | 0.0303 µM |
| COCc1ccccc1C(=O)N1C[C@H](c2cc(C(C)(C)O)no2)CC[C@H]1C [Example 21, 2-{5-[(3R,6R)-1-{[2-(Methoxymethyl)phenyl]carbonyl}-6-methylpiperidin-3-yl]isoxazol-3-yl}propan-2-ol] | 1.12 µM |
| C[C@@H]1CC[C@@H](c2cc(C(C)(C)O)no2)CN1C(=O)c1ccccc1-c1ncccn1 [Example 22, 2-(5-{(3R,6R)-6-Methyl-1-[(2-pyrimidin-2-ylphenyl)carbonyl]piperidin-3-yl}isoxazol-3-yl)propan-2-ol] | 0.0514 µM |
| CCOc1ncccc1C(=O)N1C[C@H](c2cc(C(C)(C)O)no2)CC[C@H]1C [Example 23, 2-(5-{(3R,6R)-1-[(2-Ethoxypyridin-3-yl)carbonyl]-6-methylpiperidin-3-yl}isoxazol-3-yl)propan-2-ol] | 0.268 µM |
| C[C@@H]1CC[C@@H](c2cc(C(C)(C)O)no2)CN1C(=O)c1cc(F)ccc1-n1nccn1 [Example 24, 2-{5-[(3R,6R)-1-{[5-Fluoro-2-(2H-1,2,3-triazol-2-yl)phenyl]carbonyl}-6-methylpiperidin-3-yl]isoxazol-3-yl}propan-2-ol] | 0.215 µM |
| C[C@@H]1CC[C@@H](c2cc(C(C)(C)O)no2)CN1C(=O)c1nccnc1-n1cccn1 [Example 25, 2-{5-[(3R,6R)-6-methyl-1-{[3-(1H-pyrazol-1-yl)pyrazin-2-yl]carbonyl}piperidin-3-yl]isoxazol-3-yl}propan-2-ol] | 0.799 µM |
| C[C@@H]1CC[C@@H](c2cc(C(C)(C)O)no2)CN1C(=O)c1ccccc1-c1ccccc1 [Example 26, 2-{5-[(3R,6R)-1-(Biphenyl-2-ylcarbonyl)-6-methylpiperidin-3-yl]isoxazol-3-yl}propan-2-ol] | 0.0229 µM |
| C[C@@H]1CC[C@@H](c2cc(C(C)(C)O)no2)CN1C(=O)c1cc(Cl)ccc1-n1nccn1 [Example 27, 2-{5-[(3R,6R)-1-{[5-Chloro-2-(2H-1,2,3-triazol-2-yl)phenyl]carbonyl}-6-methylpiperidin-3-yl]isoxazol-3-yl}propan-2-ol] | 0.604 µM |
| C[C@@H]1CC[C@@H](c2cc(C(C)(C)O)no2)CN1C(=O)c1nccnc1-c1ccccn1 [Example 28, 2-(5-{(3R,6R)-6-Methyl-1-[(3-pyridin-2-ylpyrazin-2-yl)carbonyl]piperidin-3-yl}isoxazol-3-yl)propan-2-ol] | 1.42 µM |
| C[C@@H]1CC[C@@H](c2cc(C(C)(C)O)no2)CN1C(=O)c1ccccc1C1(C#N)CC1 [Example 29, 1-[2-({(2R,5R)-5-[3-(1-Hydroxy-1-methylethyl)isoxazol-5-yl]-2-methylpiperidin-1-yl}carbonyl)phenyl]cyclopropanecarbonitrile] | 0.0088 µM |
| COC(=O)c1ccccc1C(=O)N1C[C@H](c2cc(C(C)(C)O)no2)CC[C@H]1C [Example 30, Methyl 2-({(2R,5R)-5-[3-(1-hydroxy-1-methylethyl)isoxazol-5-yl]-2-methylpiperidin-1-yl}carbonyl)benzoate] | 0.251 µM |
| CCOc1ccccc1C(=O)N1C[C@H](c2cc(C(C)(C)O)no2)CC[C@H]1C [Example 31, 2-(5-{(3R,6R)-1-[(2-Ethoxyphenyl)carbonyl]-6-methylpiperidin-3-yl}isoxazol-3-yl)propan-2-ol] | 0.178 µM |

— patent US10017504B2, “Piperidine isoxazole and isothiazole orexin receptor antagonists” (MERCK SHARP & DOHME CORP., priority 2014, dated 2018)
